This note sets out measurements from US5298521A, “1,5-diphenyl-3-pyrazolylalkyl-N-hydroxydithiocaramates, compositions and use” (Ortho Pharmaceutical Corporation, priority 1993, dated 1994).

SMILES strings stand for the structures.

The target in assay [1] is T1, Sheep seminal vesicle cyclooxygenase (Ovis aries, UniProt P05979).
T1 construct: Sheep seminal vesicle (SSV) cyclooxygenase (95% pure); purchased Biomol (Plymouth Meeting, Pa.); host or cells: sheep seminal vesicle
T1 sequence (P05979 25-600): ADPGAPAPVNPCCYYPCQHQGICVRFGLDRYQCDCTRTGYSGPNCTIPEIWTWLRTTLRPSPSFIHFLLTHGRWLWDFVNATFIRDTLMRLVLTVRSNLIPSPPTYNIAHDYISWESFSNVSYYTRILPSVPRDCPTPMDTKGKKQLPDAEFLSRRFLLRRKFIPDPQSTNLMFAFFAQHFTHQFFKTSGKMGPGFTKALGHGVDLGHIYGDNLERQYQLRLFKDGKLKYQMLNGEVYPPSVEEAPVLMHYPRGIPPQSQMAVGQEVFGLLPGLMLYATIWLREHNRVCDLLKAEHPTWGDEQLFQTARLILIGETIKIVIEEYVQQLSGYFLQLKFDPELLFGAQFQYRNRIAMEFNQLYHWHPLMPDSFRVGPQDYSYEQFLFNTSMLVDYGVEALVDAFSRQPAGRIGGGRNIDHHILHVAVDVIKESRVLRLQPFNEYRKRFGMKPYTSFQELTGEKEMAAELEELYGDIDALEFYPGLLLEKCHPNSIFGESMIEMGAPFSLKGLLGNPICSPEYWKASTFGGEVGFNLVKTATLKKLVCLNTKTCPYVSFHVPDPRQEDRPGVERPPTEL
As to the kind of experiment: Sheep seminal vesicle cyclooxygenase (Procedure I). Type of assay: biochemical. The settings on record: read-out: PROC. I % INHIB CO. The protocol: Sheep seminal vesicle cyclooxygenase Sheep seminal vesicle (SSV) cyclooxygenase (95% pure, prostaglandin endoperoxide synthase, EC 1.14.99.1 specific activity 24 units/mg protein) obtained as a lyophilized powder from Biomol (Plymouth Meeting, Pa.) was reconstituted at a concentration of 59 mg/mL in Hanks' Balanced Salt Solution (HBSS). The enzyme was divided into 200 μL aliquots, snap frozen with liquid N2, and stored at -70° C. unitl immediately prior to use. Measurements of CO activity were carried out in polypropylene tubes containing 495 μL of HBSS to which was added 5 μL of inhibitor or dimethylsulfoxide (DMSO; vehicle control) and 6 μL of SSV CO solution. The tubes were mixed on a vortex shaker, preincubated for 5 min at 37° C. prior to the initiation of the reaction. The reaction was started by the addition of [^14 C]-arachidonic acid (1-^14 C-AA, Amersham, Arlington Heights, Il) in 10 μL of methanol. Tubes were again vortexed and incubated in a water bath for 20 minutes after which the tubes were removed and the reaction stopped by acidification with the addition of 1 mL 2M formic acid. Lipophilic products were extracted with 3 mL chloroform and concentrated to dryness under N2. Each pellet was reconstituted with 40 μL of chloroform and spotted on a Whatman Silicon thin-layer chromatography plate and developed in a chromatography tank containing A-9 solvent (11:5:2:1 V:V:V:V, ethyl acetate:trimethylpentane:acetic acid:double distilled-H2 O). Radioactive cyclooxygenase products (prostaglandin D2, prostaglandin E2, etc.) were measured using a Bioscan System 200 Imaging Scanner. Inhibition of enzyme activity was calculated by comparing the areas under the curve produced in the presence or absence of test compound.

Assay [2] has as its target T2, RBL-1 cell 5-lipoxygenase (Rattus norvegicus, UniProt P12527).
T2 construct: the supernatant was saved as the source of enzymes; endogenous in cells; host or cells: RBL-1 rat basophilic leukemia cells, homogenate supernatant
T2 sequence (P12527 1-673): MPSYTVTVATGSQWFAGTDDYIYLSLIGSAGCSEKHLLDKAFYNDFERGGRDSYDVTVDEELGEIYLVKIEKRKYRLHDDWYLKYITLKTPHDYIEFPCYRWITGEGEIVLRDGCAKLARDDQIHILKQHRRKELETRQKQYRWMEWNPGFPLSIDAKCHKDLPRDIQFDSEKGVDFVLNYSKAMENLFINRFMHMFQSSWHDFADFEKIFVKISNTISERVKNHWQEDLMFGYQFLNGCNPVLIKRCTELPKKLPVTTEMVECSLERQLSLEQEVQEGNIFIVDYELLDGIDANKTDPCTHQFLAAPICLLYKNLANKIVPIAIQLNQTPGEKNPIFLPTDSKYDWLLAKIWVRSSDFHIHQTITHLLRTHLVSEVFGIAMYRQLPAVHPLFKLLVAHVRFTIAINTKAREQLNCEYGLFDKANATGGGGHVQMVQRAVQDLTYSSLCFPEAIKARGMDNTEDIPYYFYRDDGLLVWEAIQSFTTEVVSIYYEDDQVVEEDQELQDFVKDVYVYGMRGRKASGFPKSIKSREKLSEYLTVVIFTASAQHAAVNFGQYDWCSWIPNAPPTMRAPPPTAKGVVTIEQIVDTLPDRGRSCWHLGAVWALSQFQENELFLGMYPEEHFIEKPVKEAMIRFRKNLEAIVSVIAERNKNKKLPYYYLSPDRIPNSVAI
Description: RBL-1 cell 5-lipoxygenase, cell homogenate supernatant (Procedure II). The format is biochemical. Conditions: RBL-1 homogenate; for inhibition at 3 µM: read-out: PROC. II % INHIBITION 5-LO; for IC50: read-out: PROC. II IC50 5-LO. The protocol:
RBL-1 cell 5-lipoxygenase and cyclooxygenase
Rat basophilic leukemia cells (RBL-1; 5×10^7 viable cells/mL) were disrupted by homogenization on ice (four 20 sec bursts) with a Brinkman polytron. Complete cell breakage was verified microscopically. The homogenate was then centrifuged at 10,000×g for 48 minutes at 4° C. The pellet was discarded and the supernatant was saved as the source of enzymes. The supernatant was pre-incubated for five minutes at 37° C. in the presence of 2 mM of CaCl2 and compound or vehicle (1% DMSO). The conversion of AA into 5-LO products was initiated by adding 10 μL (50 μCi) of 1-^14 C-AA to each tube and incubated at 37° C. for 20 minutes. The reaction was stopped by adjusting the pH of each sample to 3 to 3.5 with 2M formic acid. Samples were extracted with three volumes of chloroform to isolate the products of 5-LO formed during the reaction. Fractions were dried under nitrogen, then resuspended in 40 μL of chloroform and spotted onto silica gel HL plates. The plates were developed in A-9 solvent. The dried plates were analyzed using a Bioscan Imaging TLC scanner to determine the percentage of radiolabelled AA converted to 5-HETE in each sample.

The IC50 is the concentration needed to halve the response being measured. Regarding `COc1ccc(-n2nc(CSC(=S)N(O)C(C)C)cc2-c2ccc(Cl)cc2)cc1` [1-B], the inhibition at 3 µM in assay [1] is 39%; in assay [2], 100%. In assay [2], the half-maximal inhibitory concentration (IC50) came out at 570 nM.

`COc1ccc(-n2nc(CSC(=S)N(C)O)c(Cl)c2-c2ccc(Cl)cc2)cc1` [1-C]: the inhibition at 3 µM in assay [1] was found to be 46%; in assay [2] it was 91%.

For the compound `COc1ccc(-n2nc(CSC(=S)N(O)C(C)C)c(Cl)c2-c2ccc(Cl)cc2)cc1` [1-D], the inhibition at 3 µM in assay [1] worked out at 31%. Also, in assay [2], the inhibition at 3 µM stood at 70% and the 50% inhibitory concentration (IC50) worked out at 70 nM.

For the compound `COc1ccc(-n2nc(CSC(=S)N(O)C(C)C)c(Br)c2-c2ccc(Cl)cc2)cc1` [1-E], the inhibition at 3 µM in assay [1] stood at 0%. Further, in assay [2], the inhibition at 3 µM was determined as 73% and the half-inhibitory concentration (IC50) was 40 nM.

Consider `COc1ccc(-n2nc(CSC(=S)N(O)C(C)C)cc2-c2ccc(C)cc2)cc1` [1-G], for which, in assay [1], the inhibition at 3 µM turned out to be 36%. In assay [2], the inhibition at 3 µM is 79% and the IC50 was 20 nM.

Regarding `COc1ccc(-n2nc(CSC(=S)N(C)O)c(Cl)c2-c2ccc(C)cc2)cc1` [1-H], the inhibition at 3 µM is 39% in assay [1] and 91% in assay [2].
